The values that follow come from patent US12128019B1, “Nanocomposite including abscisic acid-loaded collagen nanoparticles” (KING FAISAL UNIVERSITY, priority 2023, dated 2024).

Marks after values point to notes of the source that are not given here.

The test system of data set [1] is adrenaline-induced myocardial infarction (MI). Kind of data set: Electrocardiogram and haemodynamic assessment in adrenaline-induced MI rats. Format: in vivo. As to conditions: for ECG finding: MI rats, FIGS. 3A-3E; for COP (mean) / HR (mean) / RR (interval) / ST height / carotid flow mean: rats, adrenaline 2 mg/kg s.c. on 2 consecutive days, treatment for one week. As to the method:
(§1) Four groups of rats were injected with adrenaline (2 mg/kg, s.c.) as a single dose for 2 consecutive days (24 h apart) to induce myocardial infarction (MI) while an additional rat group was used as control. Treatment of the rat groups is set forth below.
(§2) Group 1: (Control negative group): rats were injected intraperitoneally (i.p.) with physiological saline 0.2 ml/day for one week.
(§3) Group 2 (MI group): rats were injected with adrenaline (2 mg/kg, s.c.) as a single dose for 2 consecutive days (24 h apart) to induce MI.
(§4) Group 3 (MI+ABA carrying on collagen nanoparticle): rats were injected with adrenaline (2 mg/kg, s.c.) as a single dose for 2 consecutive days (24 h apart) to induce MI and ABA-loaded collagen nanoparticle were administered with adrenaline by oral gavage for one week 1 mg/kg/day of.
(§5) Group 4 (MI+Trimetazidine): rats were injected with adrenaline (2 mg/kg, s.c.) as a single dose for 2 consecutive days (24 h apart) to induce MI and Trimetazidine (Sigma, USA) was administered intraperitoneally with adrenaline at 10 mg/kg/day for one week. Trimetazidine was injected intraperitoneally in the low-dose group (10 mg/kg).
(§6) Group 5 (MI+Collagen nanoparticle) group: rats were injected with adrenaline (2 mg/kg, s.c.) as a single dose for 2 consecutive days (24 h apart) to induce MI Collagen nanoparticle was administered along with adrenaline by oral gavage for one week at 1 mg/kg/day.
(§7) Group 6 (MI+ABA carrying on collagen nanoparticle+Trimetazidine) group: rats were injected with adrenaline (2 mg/kg, s.c.) as a single dose for 2 consecutive days (24 h apart) to induce MI, and ABA-loaded collagen nanoparticle were administered (1 mg/kg/day) by oral gavage and 10 mg/kg/day with Trimetazidine administered intraperitoneally (i.p.) along with adrenaline for one week.

The test system of data set [2] is cardiac enzymes; troponin, LDH, and CK. Description: Biological cardiac markers in serum, MI rats. Format: in vivo. Particulars: for Cardiac enzyme levels: serum troponin, LDH, CK. The protocol: as §1, §2, §3, §4, §5, §6, §7
Data set [3] can be described thus: Body and heart weight of experimental rats. The format is in vivo. As to conditions: MI rats, treatment for one week. As to the method:
as §1, §2, §3, §4, §5
Group 5 (MI+Collagen nanoparticle) group: rats were injected with adrenaline (2 mg/kg, s.c.) as a single dose for 2 consecutive days (24 h apart) to induce MI Collagen nanoparticle was administered along with adrenaline by oral gavage for one week at 1 mg/kg/day. […]

Data set [4] deals with oxidative stress markers and antioxidant enzymes. Description: Oxidative stress markers and antioxidant enzymes, cardiac contents, MI rats. The format is in vivo. Particulars: treatment for one week. The protocol: as §1, §2, §3, §4, §5, §6, §7
All treatment drugs improved the marker levels. NO level increased due to adrenaline administration because the role of NO in cardiovascular diseases is complex and controversial.

The test system of a further data set is NHSF cell line. Kind of data set: In vitro cytotoxicity and cell viability, optical microscope. The format is cell-based. The protocol:
On the NHSF cell line, the cytotoxic effect of ABA alone and collagen nanoparticles loaded with ABA was investigated with serial double-fold dilutions at an initial dose of 50 μMABA. ABA loaded with collagen nanoparticles was dissolved in ethanol, 0.0264 g/mL stock solutions, which were then serially diluted in a complete growth medium to make the different concentrations used in cytotoxicity assays. The cytotoxicity of each drug against the NHSF cell line was determined using an optical microscope. After a 24-hour incubation period at 37° C., exponentially developing cells were seeded in 96-well flat-bottomed microplates and subjected to drug doses for […].
After exposure of the NHSF cell line to each experimental drug, the reactions were allowed to proceed in an incubator (37° C./5% CO2/95% humidity) for 24 hours and 72 hours of time. Cell viability was recorded through an optical microscope, which is one of the methods generally used to detect cell proliferation or toxicity.
After 24 hours, cell growth rates in different types of ABA and “Marine Collagen Nanoparticles (MCNPs) with ABA were observed under an optical microscope. Cells were also cultured in media containing ethanol in an incubator (37° C./5% CO2/95% humidity) and then observed under an optical microscope.

Consider `CC1=CC(=O)CC(C)(C)[C@@]1(O)/C=C/C(C)=C\C(=O)O` [Standard ABA, abscisic acid], for which, in data set [1], the ECG finding entry is “still showed pathological changes but with the ST segment nearer to the isoelectric line”, the “COP (mean)” value was 17.52 ± 0.1^b ml/min, the “HR (mean)” value was 255.77 ± 1.23^c b/min and the “RR (interval)” value is 0.7 ± 0.003^c sec. For the same compound, in data set [1], the ST height is 39.33 ± 2.15^b mm and the carotid flow mean was 17.4 ± 0.16^b ml/min. Moreover, in data set [1] (compared to the MI group), the “elevation of COP” value is recorded as 63%, the “elevation of SV” value came to 73% and the “elevation of carotid blood flow” value worked out at 63%. For the same compound, in data set [2], the Cardiac enzyme levels entry is given as “decreased toward normal”.

Take `CC1=CC(=O)CC(C)(C)C1(O)/C=C/C(C)=C\C(=O)O` (centres unmarked) [Extracted ABA, abscisic acid]: in data set [1], the ECG finding entry was “still showed pathological changes but with the ST segment nearer to the isoelectric line”, the “COP (mean)” value is given as 18.57 ± 1.0^b ml/min, the “HR (mean)” value is 247.4 ± 9.69^cd b/min and the “RR (interval)” value is 0.73 ± 0.03^b sec. Also, in data set [1], the ST height is reported as 42.98 ± 4.05^b mm and the carotid flow mean was 18.06 ± 1.15^b ml/min. For the same compound, in data set [1] (compared to the MI group), the “elevation of COP” value was 73%, the “elevation of SV” value was determined as 93% and the “elevation of carotid blood flow” value was found to be 70%. The Cardiac enzyme levels result in data set [2] is “decreased toward normal”.

Turning to `COc1ccc(CN2CCNCC2)c(OC)c1OC` [Trimetazidine], in data set [1], the ECG finding result is “almost normal electrocardiogramith little to no elevation in the ST-segment”, the “COP (mean)” value is on record as 23.9 ± 0.07^a ml/min, the “HR (mean)” value is 254.17 ± 1.89^c b/min and the “RR (interval)” value is 0.75 ± 0.02^a sec. In data set [1], the ST height is 27.55 ± 0.49^c mm and the carotid flow mean was 23.75 ± 0.05^a ml/min. In addition, the “decrease in the ST segment elevation” value in data set [1] (compared to the MI group) was about 46%. In addition, the Bwt in data set [3] (body weight) was 188 ± 1.22^bcd. Moreover, the Hwt in data set [3] (heart weight) is recorded as 1.39 ± 0.03^cd. For the same compound, in data set [4] (cardiac contents), the Catalase is given as 132.5 ± 36.08^ab U/g protein, the GSH was 19.59 ± 2.28ª μmol/g protein and the MDA was 4.4 ± 0.26^cde μmol/g protein. Moreover, the NO in data set [4] is on record as 52.22 ± 0^bc μM/g protein. In data set [2] (serum, treatment for one week), the CK-MB was 1.13 ± 0.02^bc U/L, the LDH is reported as 246.67 ± 12.47^d U/L and the Troponin is on record as 1.34 ± 0.03^d ng/ml.

`CC1=CC(=O)CC(C)(C)[C@@]1(O)/C=C/C(C)=C\C(=O)O` [ABA, abscisic acid]: in the data set on NHSF cell line (HSFs culture, after 72 hours), the cell proliferation result was “marked increase of proliferation”. Moreover, the cell morphology entry with NHSF cell line (NHSF cell line, after 24 hours) is “normal morphology of branch- and spindle-shapes”.
